Counter-ions that a name gives are not always drawn.
Tests used:
JAK2 tyrosine kinase = target: T1, JAK2 tyrosine kinase (Homo sapiens, UniProt O60674); assay: Test 1: inhibitory activity to JAK2 tyrosine kinase (ELISA); format: biochemical; conditions: 25 μM ATP in substrate solution, 30° C. for 1 hour, n=2
T1 construct: purchased Carnabioscience Co
In short: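 Human JAK2 (diluted to 0.75 nM before addition) phosphorylated a biotinylated peptide on streptavidin plates for 1 h at 30 °C. The substrate mix held 625 nM peptide, 25 μM ATP and 25 mM MgCl2 in 15 mM Tris pH 7.5, 0.01% Tween-20 and 1 mM DTT. Phosphotyrosine was detected by HRP antibody/TMB at 450 nm, and IC50 was obtained by non-linear regression; duplicates were run.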

JAK3 tyrosine kinase = target: T2, JAK3 tyrosine kinase (Homo sapiens, UniProt P52333); assay: Test 1: inhibitory activity to JAK3 tyrosine kinase (ELISA); format: biochemical; conditions: 25 μM ATP in substrate solution, 30° C. for 1 hour, n=2
T2 construct: purchased Carnabioscience Co
T2 sequence (P52333 1-1124): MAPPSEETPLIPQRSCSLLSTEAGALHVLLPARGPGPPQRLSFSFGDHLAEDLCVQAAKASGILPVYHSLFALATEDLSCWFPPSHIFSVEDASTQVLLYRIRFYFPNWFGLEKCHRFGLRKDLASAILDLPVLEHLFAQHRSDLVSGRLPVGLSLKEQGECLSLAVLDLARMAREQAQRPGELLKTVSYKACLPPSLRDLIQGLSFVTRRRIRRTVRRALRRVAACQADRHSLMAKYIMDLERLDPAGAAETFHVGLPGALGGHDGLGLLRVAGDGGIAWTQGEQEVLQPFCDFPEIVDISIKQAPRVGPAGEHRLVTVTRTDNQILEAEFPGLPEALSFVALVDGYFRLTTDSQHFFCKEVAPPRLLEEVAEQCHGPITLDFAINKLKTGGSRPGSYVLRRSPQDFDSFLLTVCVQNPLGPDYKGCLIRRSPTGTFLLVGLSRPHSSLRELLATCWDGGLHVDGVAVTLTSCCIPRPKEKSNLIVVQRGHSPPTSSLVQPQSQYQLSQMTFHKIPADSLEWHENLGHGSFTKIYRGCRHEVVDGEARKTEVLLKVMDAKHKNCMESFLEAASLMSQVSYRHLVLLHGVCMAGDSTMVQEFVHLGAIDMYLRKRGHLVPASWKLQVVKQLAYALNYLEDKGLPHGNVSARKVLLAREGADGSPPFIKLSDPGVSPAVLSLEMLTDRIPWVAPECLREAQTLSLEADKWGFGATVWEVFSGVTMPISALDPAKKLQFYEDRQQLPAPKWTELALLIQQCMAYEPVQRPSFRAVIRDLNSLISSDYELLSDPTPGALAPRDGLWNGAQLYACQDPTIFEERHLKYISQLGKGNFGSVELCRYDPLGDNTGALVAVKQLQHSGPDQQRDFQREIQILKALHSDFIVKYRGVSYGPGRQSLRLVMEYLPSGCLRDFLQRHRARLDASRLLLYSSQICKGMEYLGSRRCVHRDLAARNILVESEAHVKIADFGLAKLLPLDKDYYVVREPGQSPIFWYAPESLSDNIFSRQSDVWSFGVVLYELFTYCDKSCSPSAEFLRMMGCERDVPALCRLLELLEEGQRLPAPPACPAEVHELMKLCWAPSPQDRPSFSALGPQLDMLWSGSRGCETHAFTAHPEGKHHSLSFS
In short: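 ELISA of JAK3 kinase activity with absorbance read at 450 nm. Compounds were tested from DMSO dilution series at 100-fold the measurement concentrations (1000–0.01 μM), diluted up to 20 times in assay buffer, against a DMSO negative control. IC50 was estimated by non-linear regression of absorbance.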

T1 sequence (O60674 whole entry): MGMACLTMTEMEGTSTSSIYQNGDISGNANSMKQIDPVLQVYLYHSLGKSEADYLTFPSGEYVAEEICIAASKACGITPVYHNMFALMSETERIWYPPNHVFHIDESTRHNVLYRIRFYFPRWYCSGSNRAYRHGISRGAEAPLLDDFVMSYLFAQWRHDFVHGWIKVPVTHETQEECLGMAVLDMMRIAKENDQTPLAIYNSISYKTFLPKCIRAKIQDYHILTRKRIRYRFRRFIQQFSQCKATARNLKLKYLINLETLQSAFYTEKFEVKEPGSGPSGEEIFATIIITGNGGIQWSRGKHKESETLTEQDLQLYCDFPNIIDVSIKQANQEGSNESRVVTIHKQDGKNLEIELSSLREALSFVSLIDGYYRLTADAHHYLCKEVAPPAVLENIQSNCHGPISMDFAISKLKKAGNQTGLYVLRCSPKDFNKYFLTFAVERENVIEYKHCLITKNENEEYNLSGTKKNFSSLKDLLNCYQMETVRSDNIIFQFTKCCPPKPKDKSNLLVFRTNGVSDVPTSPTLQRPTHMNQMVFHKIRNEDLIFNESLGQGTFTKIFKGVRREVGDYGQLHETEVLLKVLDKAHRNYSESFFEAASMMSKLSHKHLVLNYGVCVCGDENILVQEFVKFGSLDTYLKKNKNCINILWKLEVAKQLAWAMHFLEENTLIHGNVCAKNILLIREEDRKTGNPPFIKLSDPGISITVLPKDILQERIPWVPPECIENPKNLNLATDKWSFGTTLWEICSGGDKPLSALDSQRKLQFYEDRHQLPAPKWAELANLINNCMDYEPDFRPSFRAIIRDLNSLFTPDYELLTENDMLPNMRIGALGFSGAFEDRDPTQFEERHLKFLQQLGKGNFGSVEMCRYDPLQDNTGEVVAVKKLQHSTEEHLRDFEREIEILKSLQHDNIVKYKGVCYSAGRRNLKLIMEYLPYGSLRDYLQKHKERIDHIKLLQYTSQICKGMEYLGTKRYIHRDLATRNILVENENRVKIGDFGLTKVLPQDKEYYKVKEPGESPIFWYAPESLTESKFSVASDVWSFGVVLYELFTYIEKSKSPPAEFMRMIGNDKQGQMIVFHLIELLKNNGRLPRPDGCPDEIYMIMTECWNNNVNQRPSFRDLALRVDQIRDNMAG

Row | Compound | IC50 (JAK2 tyrosine kinase) [nM] | IC50 (JAK3 tyrosine kinase) [nM]
1 | CC(=O)NC1CN(c2cc(Nc3cnccn3)nc(N[C@@H](C)c3ccc(F)cc3)n2)C1 [Example 42, (S)—N-(1-{2-[1-(4-Fluorophenyl)ethylamino]-6-(pyrazin-2-ylamino)pyrimidin-4-yl}azetidin-3-yl)acetamide] | 1 | 66
2 | C[C@H](Nc1nc(Nc2cnccn2)cc(-n2cc(C(=O)O)cn2)n1)c1ccc(F)cc1 [Example 90, (S)-1-{2-[1-(4-Fluorophenyl)ethylamino]-6-(pyrazin-2-ylamino)pyrimidin-4-yl}-1H-pyrazole-4-carboxylic acid] | 6.1 | 380
3 | C[C@H](Nc1cc(OCCCO)cc(Nc2cnccn2)n1)c1ccc(F)cc1 [Example 41, hydrochloride] | 1.1 | 51
4 | C[C@H](Nc1nc(Nc2cnccn2)cc(N[C@H](CO)c2ccccc2)n1)c1ccc(F)cc1 [Example 86, (S)-2-{2-[(S)-1-(4-Fluorophenyl)ethylamino]-6-(pyrazin-2-ylamino)pyrimidin-4-ylamino}-2-phenylethanol] | 2.4 | 87
5 | C[C@H](Nc1nc(NCC2CCCO2)cc(Nc2cnccn2)n1)c1ccc(F)cc1 (stereo partly drawn) [Example 68, N^2-[(S)-1-(4-Fluorophenyl)ethyl]-N^4-(pyrazin-2-yl)-N^6-[(tetra hydrofuran-2-yl)methyl]pyrimidine-2,4,6-triamine] | 1.5 | 34
6 | C[C@H](Nc1nc(Nc2cnccn2)cc(-c2cnco2)n1)c1ccc(F)cc1 [Example 22, (S)—N^2-[1-(4-Fluorophenyl)ethyl]-6-(oxazol-5-yl)-N^4-(pyrazin-2-yl)pyrimidine-2,4-diamine hydrochloride] | 1.6 | 88
7 | C[C@H](Nc1nc(NCCN2CCCC2)cc(Nc2cnccn2)n1)c1ccc(F)cc1 [Example 96, (S)—N^2-[1-(4-Fluorophenyl)ethyl]-N^4-(pyrazin-2-yl)-N^6-[2-(pyrrolidin-1-yl)ethyl]pyrimidine-2,4,6-triamine] | 1.4 | 33
8 | C[C@H](Nc1cc(-c2ccnn2C)cc(Nc2cnccn2)n1)c1ccc(F)cc1 [Example 47, (S)—N^2-[1-(4-Fluorophenyl)ethyl]-4-(1-methyl-1H-pyrazol-5-yl)-N^6-(pyrazin-2-yl)pyridine-2,6-diamine] | 12 | 1300
9 | CC(C)n1cc(-c2cc(Nc3cnccn3)nc(N[C@@H](C)c3ccc(F)cc3)c2)cn1 [Example 37, (S)—N^2-[1-(4-Fluorophenyl)ethyl]-4-(1-isopropyl-1H-pyrazol-4-yl)-N^6-(pyrazin-2-yl)pyridine-2,6-diamine hydrochloride] | 3.2 | 130
10 | C[C@H](Nc1nc(Nc2cnccn2)cc(-c2cc[nH]c2)n1)c1ccc(F)cc1 [Example 66, (S)—N^2-[1-(4-Fluorophenyl)ethyl]-N^4-(pyrazin-2-yl)-6-(1H-pyrrol-3-yl)pyrimidine-2,4-diamine] | 1.8 | 37
11 | C[C@H](Nc1nc(Nc2cnccn2)cc(-c2ccnc(O)c2)n1)c1ccc(F)cc1 [Example 25, (S)-4-{2-[1-(4-Fluorophenyl)ethylamino]-6-(pyrazin-2-ylamino)pyrimidin-4-yl}pyridin-2-ol] | 0.97 | 100
12 | C[C@H](Nc1nc(Nc2cnccn2)cc(N2CC(F)C2)n1)c1ccc(F)cc1 [Example 44, (S)-6-(3-Fluoroazetidin-1-yl)-N^2-[1-(4-fluorophenyl)ethyl]-N^4-(pyrazin-2-yl)pyrimidine-2,4-diamine] | 2.1 | 140
13 | C[C@H](Nc1nc(Nc2cnccn2)cc(-c2cncc(C(N)=O)c2)n1)c1ccc(F)cc1 [Example 84, (S)-5-{2-[1-(4-Fluorophenyl)ethylamino]-6-(pyrazin-2-ylamino)pyrimidin-4-yl}nicotinamide] | 2 | 170
14 | COc1ccc(-c2cc(Nc3cnccn3)nc(N[C@@H](C)c3ccc(F)cc3)n2)cn1 [Example 23, (S)—N^2-[1-(4-Fluorophenyl)ethyl]-6-(6-methoxypyridin-3-yl)-N^4-(pyrazin-2-yl)pyrimidine-2,4-diamine hydrochloride] | 4.2 | 210
15 | 4-{2-[(1S)-1-(4-Fluorophenyl)ethylamino]-6-(pyrazin-2-ylamino)pyrimidin-4-yl}-1λ^6,4-thiomorpholin-1,1-dione [Example 226] | 1.1 | 24
16 | C[C@H](Nc1nc(Nc2cnccn2)cc(N2CC(F)(F)C2)n1)c1ccc(F)cc1 [Example 3, (S)-6-(3,3-Difluoroazetidin-1-yl)-N^2-[1-(4-fluorophenyl)ethyl]-N^4-(pyrazin-2-yl)pyrimidine-2,4-diamine hydrochloride] | 1.2 | 130

Second part, the compound after the results:

Row | IC50 (JAK2 tyrosine kinase) [nM] | IC50 (JAK3 tyrosine kinase) [nM] | Compound
17 | 2.2 | 56 | CCN(CC)C(=O)C1CN(c2cc(Nc3cnccn3)nc(N[C@@H](C)c3ccc(F)cc3)n2)C1 [Example 181, (S)—N,N-Diethyl-1-{2-[1-(4-fluorophenyl)ethylamino]-6-(pyrazin-2-ylamino)pyrimidin-4-yl}azetidine-3-carboxamide]
18 | 0.99 | 47 | CNC(=O)C1CN(c2cc(Nc3cnccn3)nc(N[C@@H](C)c3ccc(F)cc3)n2)C1 [Example 174]
19 | 5.4 | 330 | C[C@H](Nc1cc(-c2ccoc2)cc(Nc2cnccn2)n1)c1ccc(F)cc1 [Example 123, (S)—N^2-[1-(4-Fluorophenyl)ethyl]-4-(furan-3-yl)-N^6-(pyrazin-2-yl)pyridine-2,6-diamine]
20 | 0.4 | 30 | C[C@H](Nc1nc(Nc2cnccn2)cc(N2CCC(C(=O)NS(C)(=O)=O)CC2)n1)c1ccc(F)cc1 [Example 122, (S)-1-{2-[1-(4-Fluorophenyl)ethylamino]-6-(pyrazin-2-ylamino)pyrimidin-4-yl}-N-(methylsulfonyl)piperidine-4-carboxamide]
21 | 0.74 | 87 | C[C@H](Nc1nc(Nc2cnccn2)cc(N2CC(NS(C)(=O)=O)C2)n1)c1ccc(F)cc1 [Example 177, (S)—N-(1-{2-[1-(4-Fluorophenyl)ethylamino]-6-(pyrazin-2-ylamino)pyrimidin-4-yl}azetidin-3-yl)methanesulfonamide]
22 | 1.2 | 50 | C[C@H](Nc1nc(Nc2cnccn2)cc(N2CC(C(=O)N3CCCCC3)C2)n1)c1ccc(F)cc1 [Example 195, (S)-(1-{2-[1-(4-Fluorophenyl)ethylamino]-6-(pyrazin-2-ylamino)pyrimidin-4-yl}azetidin-3-yl)(piperidin-1-yl)methanone]
23 | 1.4 | 31 | CC(C)NC(=O)C1CN(c2cc(Nc3cnccn3)nc(N[C@@H](C)c3ccc(F)cc3)n2)C1 [Example 191, (S)-1-{2-[1-(4-Fluorophenyl)ethylamino]-6-(pyrazin-2-ylamino)pyrimidin-4-yl}-N-isopropylazetidine-3-carboxamide]
24 | 1.6 | 60 | C[C@H](Nc1nc(Nc2cnccn2)cc(N2CC(C(=O)NCC3CC3)C2)n1)c1ccc(F)cc1 [Example 198, (S)—N-(Cyclopropylmethyl)-1-{2-[1-(4-fluorophenyl)ethylamino]-6-(pyrazin-2-ylamino)pyrimidin-4-yl}azetidine-3-carboxamide]
25 | 1.2 | 63 | C[C@H](Nc1nc(Nc2cnccn2)cc(N2CC(CN)C2)n1)c1ccc(F)cc1 [Example 230, (S)-6-[3-(Aminomethyl)azetidin-1-yl]-N^2-[1-(4-fluorophenyl)ethyl]-N^4-(pyrazin-2-yl)pyrimidine-2,4-diamine]
26 | 0.85 | 150 | C[C@H](Nc1cc(C(=O)NCCCO)cc(Nc2cnccn2)n1)c1ccc(F)cc1 [Example 172, (S)-2-[1-(4-Fluorophenyl)ethylamino]-N-(3-hydroxypropyl)-6-(pyrazin-2-ylamino)isonicotinamide]

From US8586591B2, “Aminopyrazine derivative and medicine” (Nippon Shinyaku Co., Ltd., priority 2009, dated 2013)
